Test results from PMC11134387, “Cancer-Stem-Cell Phenotype-Guided Discovery of a Microbiota-Inspired Synthetic Compound Targeting NPM1 for Leukemia” (JACS Au, 2024).
“And” between values parts separate entries of the source, which are not always exact repeats. Identical values can stand only once.

How the values were obtained:
[1] = system: primary HSCs from AML patients; assay: CD34+ liquid HSC short-term culture, AML patients; format: cell-based; details: Homo sapiens
Method: Considering the inhibitory capacity of UCM-13369 on AML cell lines (shown in Figure 3A), the therapeutic potential was assessed in primary CD34+ cells from AML patients. Two ex vivo models were used from AML patients and healthy donors: CD34+ liquid HSC (hematopoietic stem cell) culture as a short-term model and CFU-E (colony-forming unit–erythroid) as a midterm model.
The test compound was diluted in PBS. […]
Primary cells. 1x10^6/mL total mononuclear bone marrow cells (as source of CD34+ HSCs) of healthy donors and AML patients were used. They were cultured using Stem SpanTM supplement with pencillin/streptomycin (500 U/ml), TPO (10 µg/mL), SCF (10 µg/mL), FLT3 (10 µg/mL), IL-6 (10 µg/mL) and IL-3 (10 µg/mL). After 24 h fresh medium was added. After 72 h in maintenance cells were ready to start the assays. All cells wer e maintained at 37 °C in a humidified incubator in an atmosphere of 5% CO2. […]

[2] = target: T1, NPM1 N-end (pentameric, WT) (Homo sapiens, UniProt P06748); assay: Isothermal titration calorimetry, NPM1 N-end; format: binding; details: ITC, 25 °C
T1 construct: N-end pentameric domain (residues 1- 130); 6xHis (N); made in house; host or cells: E. coli BL21(DE3)
Excerpt: (§1) To confirm a direct interaction of UCM-13369 with NPM1 and to address which domain of the protein would be responsible for binding the compound, pure protein samples of the pentameric N-end domain of NPM1, along with the C-terminal DNA-binding domains of WT and mutant NPM1 C+, were used in calorimetry assays. […] This is indicative of a lower diversity in the chemical environment of amide protons consistent with the previously reported protein unfolding.[29] […] On the other hand, the pentameric construct of the NPM1 N-end, which lacks the AML-related region, yielded a much lower binding affinity (KD ca. 100 μM range, Figure 3D).
(§2) ITC experiments were performed in a Nano ITC Low Volume (TA Instruments) at 25 °C. […]
(§3) The purity of the protein samples was checked by SDS–PAGE analysis (Figure S3) and protein quantification was performed using the Bradford protein assay.5 NPM molar concentration was expressed as the pentameric form for NPM1 WT N-end and as a monomer for NPM1 C-end WT and mutant. […]
(§4) After extraction with acetonitrile and acidification, samples were desalted and concentrated with C18 tips. Mass spectra were recorded in a Hybrid Quadrupole-Orbitrap™ Mass Spectrometer (Thermo Scientific, Waltham, Massachusetts, USA)

[3] = target: T2, NPM1 C-end C+ (Homo sapiens, UniProt P06748); assay: Isothermal titration calorimetry, NPM1 C-end C+; format: binding; details: ITC
T2 construct: the C-end domain (residues 225- 294); 6xHis (N); made in house; host or cells: E. coli BL21(DE3)
Excerpt: as §1, §2, §3, §4

T2 sequence (P06748 with tags, fused parts or gaps limits assumed): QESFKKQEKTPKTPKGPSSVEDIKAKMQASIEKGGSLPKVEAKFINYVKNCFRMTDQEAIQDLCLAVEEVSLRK
T1 sequence (P06748 1-130): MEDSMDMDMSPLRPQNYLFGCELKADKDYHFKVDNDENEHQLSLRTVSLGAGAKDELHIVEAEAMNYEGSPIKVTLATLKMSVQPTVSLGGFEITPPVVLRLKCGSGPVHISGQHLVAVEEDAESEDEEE

COc1ccc(C2Cc3[nH]c4ccccc4c3C(CCNCC3CC3)C2N)cc1 (stereo not shown) [4b, 4-{2-[(Cyclopropylmethyl)amino]ethyl}-2-(4-methoxyphenyl)-2,3,4,9-tetrahydro-1H-carbazol-3-amine]
IC50 [1]: 1.88 µM
Kd [2]: 100 µM and ~100 µM
Kd ([3]; 25 °C, NPM1 C-end C+): 15 µM
Higher affinity of NPM1 C-end C+ than WT domain ([3]; C+ variant vs WT domain): 2 fold
